In patent US10822325B2, “Human GLUT5 specific inhibitors and methods of treatment” (UNM RAINFOREST INNOVATIONS, priority 2015, dated 2020):
Numbering of substitutions follows the chain as printed. “Also recorded” adds a separate entry of the source.

Assays:
GLUT1F379H = molecular target: T1, GLUT1F379H (Homo sapiens, UniProt P11166, F379H); test: Glucose entrance counter-flow transport in GLUT1F379H mutant proteoliposomes; type: biochemical; conditions: 2 mM compound
T1 construct: Full length DNA was subcloned into pFastBac1 (Life Technologies) vector with a N-terminal hexahistidine tag; hexahistidine (N); made in house; host or cells: Sf21 insect cells (baculovirus, pFastBac1)
T1 sequence (P11166 1-492 F379H): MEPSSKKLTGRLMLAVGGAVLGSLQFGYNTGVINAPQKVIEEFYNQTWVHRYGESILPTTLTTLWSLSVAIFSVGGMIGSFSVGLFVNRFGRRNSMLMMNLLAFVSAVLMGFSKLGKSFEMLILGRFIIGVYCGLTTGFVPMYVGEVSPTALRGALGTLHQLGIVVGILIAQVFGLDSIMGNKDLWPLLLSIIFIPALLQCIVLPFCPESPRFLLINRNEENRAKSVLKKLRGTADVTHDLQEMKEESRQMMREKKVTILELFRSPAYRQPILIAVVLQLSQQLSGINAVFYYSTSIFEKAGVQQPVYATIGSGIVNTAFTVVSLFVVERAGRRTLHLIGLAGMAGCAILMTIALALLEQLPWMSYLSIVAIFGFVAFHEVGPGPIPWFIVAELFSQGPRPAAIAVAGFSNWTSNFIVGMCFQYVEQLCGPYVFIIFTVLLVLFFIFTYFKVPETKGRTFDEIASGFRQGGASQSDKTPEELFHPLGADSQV
Experimental: (§1) cDNAs of GLUT1, 3, 4 and 5 were purchased from Open Biosystems (GE Healthcare). cDNAs of GLUT2 was a gift from Prof. Graeme Bell at University of Chicago. Full length DNA was subcloned into pFastBac1 (Life Technologies) vector with a N-terminal hexahistidine tag. Bacmids were generated in DH10Bac E. coli cells (Life Technologies). Baculoviruses were produced using Cellfectin II Reagent and amplified in Sf21 insect cells (Life Technologies). Cells were maintained at 26° C., and P1 (10^6 pfu/mL) was collected from infected cells after 72 hours. SF21 cells were propagated in HyClone SFX-Insect media (GE Healthcare), supplemented with 5% fetal bovine serum (Biowest), 4.8 mM glutamine, antibiotics (100 units/mL Penicillin G and 100 μg/mL streptomycin sulfate) and amphotericin B (2.5 μg/mL). […]
(§2) For the entrance counterflow transport in proteoliposomes, the assay was started by the addition of 5 μL proteoliposomes solution (OD600 nm ˜30) to 200 μL, assay solution, containing 10 μM ^14C-radiolabeled glucose (for GLUT1 wild-type or F379H mutant and GLUT2-4) or fructose (for GLUT5 wild-type or H387F mutant and GLUT2) (Moravek Biochemicals) in 100 mM KPi buffer at pH 7.5. After one minute (or different specified time points when the time-dependent counter-flow transport activity was measured), the transport was stopped with ice-chilled quench buffer [0.1 M KPi (pH 5.5) and 0.1 M lithium chloride].

human GLUT1 = molecular target: T2, human GLUT1 (Homo sapiens, UniProt P11166); test: Glucose entrance counter-flow transport in GLUT1 proteoliposomes; type: biochemical; conditions: 2 mM compound, one minute
T2 construct: Full length DNA was subcloned into pFastBac1 (Life Technologies) vector with a N-terminal hexahistidine tag; hexahistidine (N); made in house; host or cells: Sf21 insect cells (baculovirus, pFastBac1)
T2 sequence (P11166 1-492): T1 sequence (P11166 1-492 F379H) with H379F
Experimental: as §1, §2

| Structure (SMILES) | effect on GLUT1F379H glucose transport (GLUT1F379H) | effect on GLUT1 glucose transport (human GLUT1) |
| --- | --- | --- |
| CS(=O)(=O)c1ccc(Nc2ccc3c(c2)OCO3)c([N+](=O)[O-])c1 [MSNBA, N-[4-(methylsulfonyl)-2-nitrophenyl]-1,3-benzodioxol-5-amine] | remained insensitive; also recorded: remained unaffected | did not affect; also recorded: did not influence |
| O=C(CCc1ccc(O)cc1)c1c(O)cc(O)cc1O [phloretin, reference compound] | no longer inhibited; also recorded: ceased to inhibit | inhibited |
